{"source": "patent US11759480B2", "about": "“Compositions and methods for CAR T cell therapy” (ENDOCYTE, INC., priority 2017, dated 2023)", "key": {"OV90": {"test_system": "OV90", "test": "FITC-CAR-T/EC17 therapy, OV90 model (Example 28)", "type": "in vivo, NSG mice", "settings": "500 nmol/kg weekly, 5 million FITC-CAR-T", "protocol": "(§1) To test whether FITC-CAR-T/EC17 therapy has anti-tumor activity in various FR+ tumor models, NSG mice were subcutaneously implanted with MDA-MB-231 (triple negative breast cancer cell line), OV90 (human ovarian cancer cell line), KB (human cervical adenocarcinoma cell line), SKOV-3 (human ovarian carcinoma cell line), or HEK293-FRa (HEK293 stably-transfected with human FRa). When tumor size reached […], one dose of EC17 at 500 nmol/kg of body weight was injected by tail vein followed with administering of 5 million FITC-CAR-T cells 4 hours later. 500 nmol/kg EC17 was dosed once every week after the initial EC17/CAR-T administration (about day 7), tumor size and body weights of mice were monitored three times per week. The EC17 dosing days were labeled as green dashed vertical lines in the graph. […] EC17 dose-dependent temporary body weight loss was also observed in all tumor bearing mice, indicating the activation of CAR-Ts is EC17-dependent in these mice."}, "HOS-FRα": {"test_system": "HOS-FRα", "test": "EC17-controlled anti-FITC CAR T-cell therapy in osteosarcoma model (Example 47)", "type": "in vivo, NSG mice", "text": "HOS-FRα cells were implanted subcutaneously with 5×10^5 per animal in 6 animals.\n[…] One animal in the EC17-treated group received two more doses of EC17 at 50 and 100 nmol/kg on Days 40 and 42. All EC17 doses were given towards the end of the day (˜3-4 PM) to allow cytokine release syndrome (CRS) to develop overnight. Sodium fluorescein rescue was done as needed at 0.6 μmol/kg. Only the last EC17-dosed animal received sodium fluorescein on day 47."}, "MDA-MB-231 tumors [1]": {"test_system": "MDA-MB-231 tumors", "test": "FITC-CAR-T cell proliferation in vivo versus EC17 dose (Example 36)", "design": "species or system NSG mice", "protocol": "To evaluate whether the bridge dose can control CAR-T proliferation in vivo, NSG mice bearing MDA-MB-231 tumors (250-500 mm3) were divided into 4 groups and dosed with 0, 5, 50, or 500 nmol/kg of body weight of EC17 respectively (as shown in FIG. 40A). Four hours later, the four groups were administered with 5 million FITC-CAR-T cells which were cultured in vitro for 11 days, while one group of mice pre-dosed with 500 nmol/kg EC17 was not dosed with CAR-T cells and was used as a “No CAR-T control”. […] Blood samples were then collected 16 hours post the second EC17 dose and analyzed for CAR-T numbers in blood circulation (FIG. 40B). […] The interpretation of this finding is that CAR-T cells proliferated more in mice dosed with 50 or 500 nmol/kg EC17 than in mice dosed with 5 nmol/kg EC17, so that the CAR-T counts in blood circulation were higher.\nTo further confirm that FITC-CAR-T proliferation is EC17 dose-dependent, we also evaluated CAR-T proliferation in vivo when CAR-Ts were given more time to settle down and proliferate. For this purpose, we examined CAR-T cell number in mice which were administered with CAR-T cells six days earlier and four doses of EC17 had been given to boost CAR-T proliferation in vivo. NSG mice bearing MDA-MB-231 tumors (250-500 mm3) were divided into 4 groups and dosed with 0, 5, 50, or 500 nmol/kg of body weight of EC17 respectively (as shown in FIG. 41A). Four hours later, all mice were administered with 5 million FITC-CAR-T cells which were cultured in vitro for 18 days. Various levels of EC17 were then dosed at days 1, 3, 5 post CAR-T administering to boost CAR-T proliferation. Mouse blood samples were collected 24 hours post the last EC17 dose, CAR-T cells in blood were stained with anti-human CD45 antibody and counted by FACS."}, "MDA-MB-231 tumors [2]": {"test_system": "MDA-MB-231 tumors", "test": "EC17 pre-painting combined with delayed second EC17 dose (Example 30)", "type": "in vivo, mice", "protocol": "FITC-CAR-T related toxicity (e.g. sCRS) can be reduced by the combination of EC17 pre-painting and the delay of EC17 dosing post CAR-T administration. To explore strategies to control therapy-related toxicity, the combination of the EC17 pre-painting and EC17 dosing schedule optimization was evaluated. Mice bearing MDA-MB-231 tumors (100-200 mm3) were divided into three groups. Mice in group #1 (no EC17 pre-painting) were administered with 8 million FITC-CAR-T cells through the tail vein, and 500 nmol/kg EC17 was then dosed as a single dose per week (at days 2, 9, 16, etc.) post CAR-T administration. Mice in group #2 (EC17 4 hour pre-painting) were pre-painted with 500 nmol/kg EC17 4 hours before the administration of 8 million CAR-T cells, and 500 nmol/kg EC17 was then dosed as a single dose per week post CAR-T administration. Mice in group #3 (EC17 4 hour pre-painting+delayed second EC17 dose) were also pre-painted with 500 nmol/kg EC17 4 hours before the administration of 8 million CAR-T cells, but the second dose of 500 nmol/kg EC17 was postponed until 7 days after CAR-T administration, and the single dose per week schedule of EC17 dosing was then followed. Three days after CAR-T administration, mice in the three groups were evaluated by visual observation."}, "MDA-MB-231": {"test_system": "MDA-MB-231", "type": "in vivo", "settings": "for mice died (or euthanized due to sCRS): Week 2", "protocol": "To evaluate whether pre-painting tumors with EC17 can reduce the therapy-related toxicity (e.g. sCRS), NSG mice were implanted with MDA-MB-231. Since larger tumor burden is correlated with more severe CRS, the treatment was started when tumor size reached […]. Mice were divided into two groups and predosed with 500 nmol/kg EC17 at different time points before CAR-T administration (FIGS. 26A and 26B). Group #1 was pre-dosed 4 hours before the administration of 8 million CAR-T cells, while group #2 was pre-dosed 24 hours before the administration of 8 million CAR-T cells. 500 nmol/kg EC17 was then i.v. dosed once per week (at days 1, 8, 15 etc.) post CAR-T administration (FIGS. 26D and 26E). […] No difference in anti-tumor activity was found in these two groups, and all surviving mice became tumor free eventually. Thus, toxicity was less in mice with 24 hour pre-painting than in mice with 4 hour pre-painting with EC17."}, "MDA-MB-231 tumors [3]": {"test_system": "MDA-MB-231 tumors", "test": "IFN-γ in blood versus EC17 dose level and presence of tumor (Example 24)", "type": "in vivo, mice", "settings": "10 days after CAR-T injection, EC17 three times per week", "protocol": "CAR-T cells were injected into naïve mice (8 million per mouse) and mice bearing MDA-MB-231 tumors (5 million per mouse). Various levels of EC17 were administrated three times per week. IFN-γ in blood was measured 10 days after CAR-T cell injection."}, "SKOV-3": {"test_system": "SKOV-3", "test": "FITC-CAR-T/EC17 therapy, SKOV-3 model (Example 28)", "type": "in vivo, NSG mice", "settings": "500 nmol/kg weekly, 5 million FITC-CAR-T", "protocol": "as §1"}}, "note": "Like-named read-outs stand apart in the source and are kept apart here.", "data": [{"smiles": "Nc1nc2ncc(CNc3ccc(C(=O)NC(CCC(=O)NCCNC(=S)Nc4ccc(-c5c6ccc(=O)cc-6oc6cc(O)ccc56)c(C(=O)O)c4)C(=O)O)cc3)nc2c(=O)[nH]1", "note": "(centres unmarked) [EC17, FITC-Folate]", "values": [{"measurement": "cures", "setting": "OV90", "result": 50, "unit": "%"}, {"measurement": "stable disease", "setting": "OV90", "result": 50, "unit": "%"}, {"measurement": "tumor volume", "setting": "HOS-FRα; 500 nmol/kg SIW, 10.5 million CAR T-cells", "result": "started to shrink on Days 28 and 33"}, {"measurement": "CRS", "setting": "HOS-FRα; once tumors reached >200 mm^3", "result": "CRS was severe"}, {"measurement": "CAR-T cells in blood versus 0 nmol/kg EC17", "setting": "MDA-MB-231 tumors [1]; 5 nmol/kg, day 3", "result": "less CAR-T cells in their blood circulation"}, {"measurement": "CAR-T cells in blood", "setting": "MDA-MB-231 tumors [1]; 50 or 500 nmol/kg, day 3", "result": "more CAR-T cells in their blood circulation"}, {"measurement": "EC17 dose with the highest CAR-T count", "setting": "MDA-MB-231 tumors [1]; day 6, four EC17 doses", "result": 50, "unit": "nmol/kg"}, {"measurement": "anti-tumor outcome", "setting": "MDA-MB-231 tumors [2]; all three groups", "result": "complete responses"}, {"measurement": "sCRS by visual observation", "setting": "MDA-MB-231 tumors [2]; group #1 no pre-painting, three days after CAR-T", "result": "the worst sCRS"}, {"measurement": "sCRS by visual observation", "setting": "MDA-MB-231 tumors [2]; group #2 EC17 4 hour pre-painting", "result": "sCRS but less severe"}, {"measurement": "sCRS by visual observation", "setting": "MDA-MB-231 tumors [2]; group #3 EC17 4 hour pre-painting + delayed second EC17 dose", "result": "didn't show sCRS"}, {"measurement": "mice survived over 5 weeks", "setting": "MDA-MB-231; 4-hour pre-painting", "result": 17, "unit": "%"}, {"measurement": "mice died (or euthanized due to sCRS)", "setting": "MDA-MB-231; 4-hour pre-painting", "result": 33, "unit": "%"}, {"measurement": "mice died", "setting": "MDA-MB-231; 4-hour pre-painting, Week 3", "result": 33, "unit": "%"}, {"measurement": "mice died", "setting": "MDA-MB-231; 4-hour pre-painting, week 4", "result": 17, "unit": "%"}, {"measurement": "mice died (or euthanized due to sCRS)", "setting": "MDA-MB-231; 24-hour pre-painting", "result": 17, "unit": "%"}, {"measurement": "mice survived over 5 weeks", "setting": "MDA-MB-231; NSG, mouse, in vivo", "result": 83, "unit": "%"}, {"measurement": "tumor outcome of surviving mice", "setting": "MDA-MB-231; both pre-painting groups", "result": "tumor free"}, {"measurement": "cytokine production (IFN-γ in blood)", "setting": "MDA-MB-231 tumors [3]", "result": "dependent on both the bridge (EC17) dose level and the presence of the tumor"}, {"measurement": "tumor response", "setting": "SKOV-3", "result": "stable disease"}]}]}
